For one data set, the system named is PC3 tumor cells. Briefly: cell competition experiment, uptake of tracer (29) against excess L-ornithine. In kind it is cell-based. To be noted: 0.25 MBq tracer, 1 mM L-ornithine, incubation 30 min. As for the experimental part:
(§1) To determine the specificity of (4S)-[^18F]-fluoro-L-ornithine (29), the fluorinated compound was used as tracer in a cell competition experiment in A549 as well as PC3 tumor cells against an excess of L-Ornithine (1 mM).
(§2) FIG. 4: The specificity of (4S)-[^18F]-fluoro-L-ornithine (29) for uptake into tumor cells was determined in cell competition experiments using A549 as well as PC3 tumor cells. (0.25 MBq of (4S)-[^18F]-fluoro-L-ornithine was used as tracer, an excess of 1 mM L-ornithine was used for saturation of uptake systems, incubation time 30 min).

The test system of data set [1] is NCI-H460 (human NSCLC) tumor bearing rats. Briefly: radioactivity in removed organs after the PET-imaging study (biodistribution). Format: in vivo, rat. To be noted: 98 min p.i. As for the experimental part:
(§3) Animal experiments. (4S)-[^18F]-fluoro-L-ornithine was examined in NCI-H460 (human NSCLC) tumor bearing rats using PET-Imaging. PET images were obtained from 45 min after administration of the radiotracer (7.16 MBq) for 30 min. […] After the PET-imaging study (98 min p.i.) the rat was sacrificed, several organs were removed and the amount of radioactivity in tissues was measured.

The test system of data set [2] is A549 cells. As to the kind of experiment: time dependence of uptake of tracer (29), cell-bound fraction. Format: cell-based, human. The following applies: 0.25 MBq, 60 min incubation. The method, then: (§4) In a second experiment, A549 and PC3 cells were incubated with (4S)-[^18F]-fluoro-L-ornithine for up to 60 min and the cell-bound fraction was determined. Approximately 5% of applied dose was taken up by the cells during the 60 min incubation period (FIG. 5).
(§5) FIG. 5: The time dependence of uptake of (4S)-[^18F]-fluoro-L-ornithine(29) was determined. (A549 and PC3 cells were incubated with 0.25 MBq (4S)-[^18F]-fluoro-L-ornithine for up to 60 min and the cell-bound fraction was determined after 10, 20, 30 and 60 min)

Data set [3] deals with A549 tumor cells. Briefly: cell competition experiment, uptake of tracer (29) against excess L-ornithine. Format: cell-based, human. The following applies: 0.25 MBq tracer, 1 mM L-ornithine, incubation 30 min. As for the experimental part: as §1, §2
The subject of data set [4] is NCI-H460 (human NSCLC) tumor bearing rats. As to the kind of experiment: PET-Imaging in tumor bearing rats. Format: in vivo, rat. The method, then:
as §3
FIG. 7: PET-Imaging of (4S)-[^18F]-fluoro-L-ornithine (29) in H460 tumor bearing rats. 7.16 MBq of radioactive tracer was injected i.v. into rats. PET images were obtained using the Inveon PET/CT scanner from 45 min p.i. for 30 min.

In a further data set the test system is PC3 cells. As to the kind of experiment: time dependence of uptake of tracer (29), cell-bound fraction. The following applies: 0.25 MBq, 60 min incubation. In kind it is cell-based. As for the experimental part:
as §4, §5

In data set [5] the test system is A549 tumor cells. As to the kind of experiment: retention of activity in tumor cells under efflux conditions. In kind it is cell-based, human. The following applies: A549 cells loaded 30 min with 0.25 MBq, then 30 min in new buffer (efflux conditions). The method, then: In a third experiment, the retention of activity in tumor cells was examined. A549 cells were incubated with (4S)-[^18F]-fluoro-L-ornithine for 30 min. After this time, cells were incubated with new buffer (without radiotracer) for up to 30 min. The release of radioactivity into the supernatant as well as the retention inside the cells was examined. It was discovered, that approximately 66% of activity were retained in the tumor cells after 30 min under efflux conditions (FIG. 6).
FIG. 6: Examination of retention of (4S)-[^18F]-fluoro-L-ornithine (29) in A549 tumor cells. A549 cells were loaded with 0.25 MBq (4S)-[^18F]-fluoro-L-ornithine for 30 min in PBS. After washing, the cells were incubated with new buffer (without activity) for additional 10, 20, 30 min. The release of radioactivity into the supernatant as well as the retention inside the cells was determined.

In data set [6] the test system is H460 (human NSCLC) tumor cells. Briefly: cell competition experiment, uptake of tracer (38) against excess L-ornithine. Format: cell-based. The following applies: 30 min incubation, 0.25 MBq tracer in PBS, L-ornithine 1 mM. As for the experimental part:
(§6) To determine the specificity of (5R)-[^18F]-fluoromethyl-L-ornithine (38), the fluorinated compound was used as tracer in a cell competition experiment in A549 (human NSCLC) as well as H460 (human NSCLC) tumor cells using an excess of L-ornithine (1 mM) for competition.
(§7) FIG. 1: Examination of biological activity of (5R)-[^18F]-fluoromethyl-L-ornithine (38) from in a cell-competition-experiment. (NCI-H460 and A549 cells, 30 min incubation with 0.25 MBq (5R)-[^18F]-fluoromethyl-L-ornithine in PBS-Puffer, concentration of L-ornithine 1 mM).

Data set [7] relates to A549 (human NSCLC) tumor cells. The description is as above. Format: cell-based. To be noted: 30 min incubation, 0.25 MBq tracer in PBS, L-ornithine 1 mM. The method, then: as §6, §7
Data set [8] relates to PC3 (prostate) tumor cell line. Briefly: time-dependence of binding of tracer (38) to tumor cell lines. Format: cell-based. The following applies: 30 min incubation with 0.25 MBq. The method, then: In a second experiment, the time-dependence of binding of (5R)-[^18F]-fluoromethyl-L-ornithine to several tumor cell lines was determined using A549, H460 as well as PC3 (prostate) and DU145 (prostate) tumor cell lines. After 30 min incubation with 0.25 MBq up to 5% (PC3 cells) of applied dose were bound to the cells (FIG. 2).
FIG. 2: Binding of (5R)-[^18F]-fluoromethyl-L-ornithine (38) to several tumor cell lines. (A549, H460 (both human NSCLC) as well as PC3 and DU145 (both prostate) tumor cell lines were used and incubated with 0.25 MBq (5R)-[^18F]-fluoromethyl-L-ornithine for up to 30 min. The cell-bound fraction of activity was determined after 10 min, 20 min and 30 min.

In data set [9] the test system is A549 cells. As to the kind of experiment: cell competition experiment using 14C-ornithine as tracer. Format: cell-based, human. To be noted: 0.1 μCi 14C-ornithine tracer, compound 1 mM, incubation 10 min. As for the experimental part:
(3R)-3-fluoro-L-ornithine-dihydrochloride (31) was used in a cell competition experiment using ^14C-ornithine as tracer.
FIG. 3: The specificity of (3R)-3-fluoro-L-ornithine-dihydrochloride (31) to compete for ^14C-Ornithine uptake was determined in a cell competition experiment in A549 cells. (0.1 μCi ^14C-Ornithine was used as tracer, (3R)-3-fluoro-L-ornithine-dihydrochloride was used at a concentration of 1 mM, incubation period 10 min).

The conditions of data set [10]: Welch et al. 1986; cited from earlier work.
[11] abbreviates: PET from 45 min p.i. for 30 min, 7.16 MBq i.v., H460 tumor.

Counter-ions that a name gives are not always drawn.

As to `NC[C@@H]([18F])C[C@H](N)C(=O)O` [Example 29, (4S)-[^18F]-fluoro-L-ornithine], the “uptake of tracer blockable by excess of ornithine” value with PC3 tumor cells and in the data set on A549 tumor cells [3] was “blockable by excess of ornithine” each time. The radioactivity in blood in data set [1] (blood) is 0.38 % ID/g. Also, the radioactivity in bone in [1] (bone) turned out to be 2.08 % ID/g. Also, the radioactivity in brain in data set [1] (brain) came out at 0.24 % ID/g. Besides, in data set [1] (heart), the radioactivity in heart came to 0.44 % ID/g. For the same compound, in [1] (kidney), the radioactivity in kidney is 1.18 % ID/g. In addition, the radioactivity in liver in [1] (liver) was 0.39 % ID/g. Also, the radioactivity in lung in data set [1] (lung) is reported as 0.44 % ID/g. The radioactivity in pancreas in data set [1] (pancreas) stood at 2.47 % ID/g. Also, in data set [1] (tumor), the radioactivity in tumor was found to be 1.43 % ID/g. For the same compound, the “applied dose taken up by the cells” value in the data set on A549 cells [2] and in the data set with PC3 cells was “Approximately 5 % of applied dose” each time. In addition, the “injected dose per gram tumor by ROI analyses” value in data set [4] (setting [11]) was “up to 2.2 % injected dose per gram”. In addition, in [4] (setting [11]), the “tumor visualization in PET images” value is listed as “very well visualized”. For the same compound, the “defluorination in vivo, uptake of released [F18]-fluoride in the bones” value in data set [4] (later time points of PET study) is recorded as “Some partial defluorination”. Besides, the “activity retained in the tumor cells” value in the data set with A549 tumor cells [5] is listed as “approximately 66%”.

Regarding `N[C@@H](C[18F])CC[C@H](N)C(=O)O` [Example 38, (5R)-[^18F]-fluoromethyl-L-ornithine], the “uptake of tracer blockable by excess of L-ornithine” value in data set [6] and in [7] was “blockable by excess of L-ornithine” each time. Further, the “applied dose bound to the cells” value in data set [8] is listed as “up to 5 % of applied dose”.

Turning to `NCC[C@@H](F)[C@H](N)C(=O)O` [Example 31, (3R)-3-fluoro-L-ornithine-dihydrochloride], the “block of uptake of 14C-ornithine” value in the data set with A549 cells [9] is on record as “can block uptake of ^14C-ornithine in A549 cells to a large extent”.

Turning to [^18F]fluoro-putricine, in data set [10], the “in-vivo release of free [18F]fluoride” value is “relatively high in-vivo release of free [^18F]fluoride”.
